Drawing on US10308608B2, “Histone deacetylase inhibitors” (BIOMARIN PHARMACEUTICAL INC., priority 2015, dated 2019), this text covers fold induction for 27 compounds.

Counter-ions that a name gives are not always drawn.

The first assay has as its system Frataxin (FXN) mRNA. The experiment in a line: Effect of HDAC inhibitors on frataxin (FXN) mRNA expression, qRT-PCR in compound-treated iPSC derived neuronal cells. It counts as cell-based. Conditions: iPSC, 24 h, compound concentration of 0.625 μM, 24 h incubation, read-out: FXN mRNA fold induction. As to the method: Effect of HDAC Inhibitors on Frataxin (FXN) mRNA Expression
Method: mRNA quantification of compound-treated iPSC derived neuronal cells Neuronal stem cells were cultured in Neurobasal A medium (Life technologies #10888022) supplemented with N2, B27 (Life technologies #17502-048 and #17504-044), L-glutamine (Life technologies #25030081), supplemented with 20 ng/ml EGF (R&D Systems #236-EG) and 20 ng/ml bFGF (BioPioneer # HRP-0011). Neuronal differentiation was initiated by removing growth factors and culturing cells in Neurobasal A with N2 and B27. Cells were allowed to differentiate for 16 days. HDAC inhibitory compound was then added and incubate for 24 h. RNA isolation was performed using the RNeasy Plus mini kit (QIAgen #74134) using a QIAcube instrument per manufacturer's instructions. qRT-PCR was performed using qScript One-Step SYBR Green qRT-PCR Kit (Quanta Biosciences 170-8893BR) with the following conditions: 20 minutes at 50° C., 5 minutes at 95° C., and then 40 cycles of 20 seconds at 95° C., 20 seconds at 55° C., 30 seconds at 72° C. The primer sequences to detect expression of FXN were: 5′-[…]-3′ and 5′-[…]-3′.
The data for the following compounds, for FXN mRNA fold induction at a compound concentration of 0.625 μM are shown in Table 1, where A<1, 1<B<2, 2<C<3, 3<D<5, E>5.
In general terms: Real-time PCR tracks product formation cycle by cycle.
In the case of `CC(C)(C)CN1CC[C@H](Nc2ccc(C(=O)Nc3ccccc3N)cc2)C1` [Compound 98, (S)-N-(2-aminophenyl)-4-((1-neopentylpyrrolidin-3-yl)amino)benzamide trihydrochloride], the fold induction at 0.625 µM lay in the range of 2 to 3.

As to `CN1CC(Oc2ccc(C(=O)Nc3ccccc3N)cc2)C1` [Compound 42, N-(2-aminophenyl)-4-((1-methylazetidin-3-yl)oxy)benzamide], the fold induction at 0.625 µM is 1 to 2.

In the case of `Nc1ccccc1NC(=O)c1ccc(N[C@@H]2CCN(C3COC3)C2)cc1` [Compound 139, (R)-N-(2-aminophenyl)-4-((1-(oxetan-3-yl)pyrrolidin-3-yl)amino)benzamide tris(2,2,2-trifluoroacetate)], the fold induction at 0.625 µM was 1 to 2.

As for `CC(C)(O)CN1CC[C@@H](Oc2ccc(C(=O)Nc3ccccc3N)cc2)C1` [Compound 60, (R)-N-(2-aminophenyl)-4-((1-(2-hydroxy-2-methylpropyl)pyrrolidin-3-yl)oxy)benzamide dihydrochloride], the fold induction at 0.625 µM was 1 to 2.

Take `CC(C)(C)CN1CC[C@@H](Oc2ccc(C(=O)Nc3ccccc3N)cc2)C1` [Compound 61, (R)-N-(2-aminophenyl)-4-((1-neopentylpyrrolidin-3-yl)oxy)benzamide]: the fold induction at 0.625 µM lay within 1 to 2.

For the compound `CC(C)CN1CCCC(Nc2ccc(C(=O)Nc3ccccc3N)cc2)CC1` (stereo not drawn) [Compound 80, N-(2-aminophenyl)-4-((1-isobutylazepan-4-yl)amino)benzamide], the fold induction at 0.625 µM lay in the range of 2 to 3.

Turning to `Nc1ccccc1NC(=O)c1ccc(O[C@@H]2CCN(CC3CC3)C2)cc1` [Compound 62, (R)-N-(2-aminophenyl)-4-((1-(cyclopropylmethyl)pyrrolidin-3-yl)oxy)benzamide dihydrochloride], the fold induction at 0.625 µM fell in the range of 1 to 2.

Consider `Nc1ccccc1NC(=O)c1ccc(N[C@H]2CCN(CC3CC3)C2)cc1` [Compound 99, (S)-N-(2-aminophenyl)-4-((1-(cyclopropylmethyl)pyrrolidin-3-yl)amino)benzamide trihydrochloride], for which the fold induction at 0.625 µM was 2 to 3.

As to `Nc1ccccc1NC(=O)c1ccc(OC2CCN(CC34CC5CC(CC(C5)C3)C4)CC2)cc1` [Compound 133, 4-((1-(((3r,5r,7r)-adamantan-1-yl)methyl)pipendin-4-yl)oxy)-N-(2-aminophenyl)benzamide dihydrochloride], the fold induction at 0.625 µM is 2 to 3.

For the compound `Nc1ccccc1NC(=O)c1ccc(NC2CCCN(CC3CCCCC3)CC2)cc1` (stereo not drawn) [Compound 85, N-(2-aminophenyl)-4-((1-(cyclohexylmethyl)azepan-4-yl)amino)benzamide], the fold induction at 0.625 µM was in the range of 2 to 3.

As for `CC(C)CN1CC(Oc2ccc(C(=O)Nc3ccccc3N)cc2)C1` [Compound 43, N-(2-aminophenyl)-4-((1-isobutylazetidin-3-yl)oxy)benzamide dihydrochloride], the fold induction at 0.625 µM was 1 to 2.

In the case of `CC(C)(O)CN1CC[C@@H](Nc2ccc(C(=O)Nc3ccccc3N)cc2)C1` [Compound 105, (R)-N-(2-aminophenyl)-4-((1-(2-hydroxy-2-methylpropyl)pyrrolidin-3-yl)amino)benzamide trihydrochloride], the fold induction at 0.625 µM is 2 to 3.

`CN1CCC(Nc2ccc(C(=O)Nc3ccccc3N)cc2)CC1` [Compound 111, N-(2-aminophenyl)-4-((1-methylpiperidin-4-yl)amino)benzamide]: the fold induction at 0.625 µM was in the range of 1 to 2.

Consider `Nc1ccccc1NC(=O)c1ccc(O[C@@H]2CCCN(CC3CC3)CC2)cc1` [Compound 38B, (R)-N-(2-aminophenyl)-4-((1-(cyclopropylmethyl)azepan-4-yl)oxy)benzamide], for which the fold induction at 0.625 µM was in the range of 1 to 2.

With `CC(C)(C)CN1CC[C@H](Oc2ccc(C(=O)Nc3ccccc3N)cc2)C1` [Compound 53, (S)-N-(2-aminophenyl)-4-((1-neopentylpyrrolidin-3-yl)oxy)benzamide], the fold induction at 0.625 µM fell in the range of 1 to 2.

Consider `CC(C)(O)CN1CC(Oc2ccc(C(=O)Nc3ccccc3N)cc2)C1` [Compound 44, N-(2-aminophenyl)-4-((1-(2-hydroxy-2-methylpropyl)azetidin-3-yl)oxy)benzamide dihydrochloride], for which the fold induction at 0.625 µM lay in the range of 1 to 2.

Take `Nc1ccccc1NC(=O)c1ccc(OC2CCCNCC2)cc1` (stereo not drawn) [Compound 33, N-(2-aminophenyl)-4-(azepan-4-yloxy)benzamide hydrochloride]: the fold induction at 0.625 µM lay within 2 to 3.

For the compound `CC(C)(O)CN1CCC(Oc2ccc(C(=O)Nc3ccccc3N)cc2)CC1` [Compound 2, N-(2-aminophenyl)-4-((1-(2-hydroxy-2-methylpropyl)piperidin-4-yl)oxy)benzamide], the fold induction at 0.625 µM lay within 1 to 2.

`Nc1ccccc1NC(=O)c1ccc(NC2CCN(C3CC3)CC2)cc1` [Compound 140, N-(2-aminophenyl)-4-((1-cyclopropylpiperidin-4-yl)amino)benzamide trihydrochloride trihydrochloride]: the fold induction at 0.625 µM fell in the range of 2 to 3.

`Nc1ccccc1NC(=O)c1ccc(O[C@H]2CCN(CC3CCCCC3)C2)cc1` [Compound 56, (S)-N-(2-aminophenyl)-4-((1-(cyclohexylmethyl)pyrrolidin-3-yl)oxy)benzamide dihydrochloride]: the fold induction at 0.625 µM lay within 2 to 3.

With `Nc1ccccc1NC(=O)c1ccc(N[C@@H]2CCN(C3CC3)C2)cc1` [Compound 138, (R)-N-(2-aminophenyl)-4-((1-cyclopropylpyrrolidin-3-yl)amino)benzamide trihydrochloride], the fold induction at 0.625 µM lay within 2 to 3.

Turning to `CC1(CN2CC(Oc3ccc(C(=O)Nc4ccccc4N)cc3)C2)CC1` [Compound 47, N-(2-aminophenyl)-4-((1-((1-methylcyclopropyl)methyl)azetidin-3-yl)oxy)benzamide dihydrochloride], the fold induction at 0.625 µM was in the range of 1 to 2.

Staying with this assay, now noted: iPSC, 24 h, read-out: FXN mRNA fold induction, compound concentration of 0.625 μM, 24 h incubation.
As for `CN1C2CCC1CC(Nc1ccc(C(=O)Nc3ccccc3N)cc1)C2` (stereo not drawn) [Compound 116, N-(2-aminophenyl)-4-((8-methyl-8-azabicyclo[3.2.1]octan-3-yl)amino)benzamide trihydrochloride], the fold induction at 0.625 µM fell in the range of 2 to 3.

With `CC(C)(O)CN1CCC(N(CC2CC2)c2ccc(C(=O)Nc3ccccc3N)cc2)CC1` [Compound 29, N-(2-aminophenyl)-4-((cyclopropylmethyl)(1-(2-hydroxy-2-methylpropyl)piperidin-4-yl)amino)benzamide Trihydrochloride], the fold induction at 0.625 µM lay in the range of 1 to 2.

Consider `Nc1ccccc1NC(=O)c1ccc(NC2CC3CCC(C2)N3CC2CC2)cc1` (stereo not drawn) [Compound 120, N-(2-aminophenyl)-4-((8-(cyclopropylmethyl)-8-azabicyclo[3.2.1]octan-3-yl)amino)benzamide trihydrochloride], for which the fold induction at 0.625 µM was 1 to 2.

`CC(C)(O)CN1C2CCC1CC(Oc1ccc(C(=O)Nc3ccccc3N)cc1)C2` (stereo not drawn) [Compound 73, N-(2-aminophenyl)-4-((8-(2-hydroxy-2-methylpropyl)-8-azabicyclo[3.2.1]octan-3-yl)oxy)benzamide dihydrochloride]: the fold induction at 0.625 µM lay within 1 to 2.

Turning to `CC1(CN2C3CCC2CC(Oc2ccc(C(=O)Nc4ccccc4N)cc2)C3)CC1` (stereo not drawn) [Compound 76, N-(2-aminophenyl)-4-((8-((1-methylcyclopropyl)methyl)-8-azabicyclo[3.2.1]octan-3-yl)oxy)benzamide dihydrochloride], the fold induction at 0.625 µM was 2 to 3.
